Data on 1 molecule can be found in patent US20170143603A1, “PROCESS FOR SEMI-PERMANENT STRAIGHTENING OF CURLY, FRIZZY OR WAVY HAIR” (KAO CORPORATION, priority 2010, published 2017).

The structures appear in SMILES notation.

A short description of this assay: Hair straightening treatment, assessment in words of hair look and permanence. Also noted: species or system human. As to the method:
Tests consisted in dissolving 10 grams of glyoxylic acid in 100 milliliters of water.
In particular, hair was washed with basic pH (7.5-8.5) shampoo, then said glyoxylic acid solution was applied (application can be made with hard bristle brush, spray or in any other way).
Hair was left in contact with the substance for 60 minute time (+/−30 minutes) and then dried with the hairdryer.
Once dried, hair was straightened with hair straightening iron heated at average temperature of approximately 200°C., +/−50° C.
Finally, hair was rinsed again with water or washed again with shampoo and dried.
Each substance was tested in a mixture with such glyoxylic acid solution by adding 10 grams of one of the substances listed in table 2 to 100 milliliters of said solution.
In particular, a hair straightening test was carried out using the formulation of a cosmetic product by INOAR Cosmeticos Ltda of San Paulo, Brazil, known as “Tratamento capillar marroquino”. The product was deprived of its active ingredient for hair straightening.
10 grams of glyoxylic acid were added to 100 milliliters of said cosmetic and, after carrying out the same hair treatment operations illustrated in the foregoing pages, the results were identical to the ones achieved using the same percentage ratio of glyoxylic acid in water.

Regarding `O=CC(=O)O` [glyoxylic acid, Glyoxylic acid], the “hair condition at the end of treatment” value was “permanently shiny, straight, volumeless, and soft to touch” (10 grams of glyoxylic acid in 100 milliliters of cosmetic “Tratamento capillar marroquino” deprived of its active ingredient); “shiny, straight, volumeless, soft to touch, and especially pleasant” (10 grams of glyoxylic acid in 100 milliliters of water, 60 minute contact, iron approximately 200°C.). Also, the “efficacy of treatment maintained over time” value (washings, rinsings and dryings in normal use conditions of hair shampoo) was “at least six washings, rinsings and dryings”. For the same molecule, the “result compared with the other buffering agents of the European list” value (within the process of the invention) is recorded as “best results”.
